Source: patent publication EP1933809B1, “COMPOSITIONS FOR NASAL DELIVERY” (YISSUM RESEARCH DEVELOPMENT COMPANY OF THE HEBREW …, priority 2005, dated 2007)

Columns and labels:
Female Balb/c mice = test: Writhing test in mice, writhing induced by IP acetic acid (Example 13); type: in vivo
Protocol: Experiments 1: The experiments were carried out on Female Balb/c mice (21-26g). Two experimental groups were used: control (untreated) (n=6) and treated group (n=6). […] Half an hour after nasal application, each animal in treated and control groups was IP administered with acetic acid 0.6% (10 ml/kg) and individually housed in cage with a smooth flat floor. Antinociception effect was recorded by counting the number of writhes 5 minutes after injection of acetic acid for period of 10 minutes. A writhe is indicated by abdominal constriction and stretching of at least one hind limb.
Experiment 2: The experiment was carried out on Female Balb/c mice (21-26g). Two experimental groups were used: control (untreated) (n=6) and treated group (n=6). […] Immediately after nasal application (t=0), each animal in treated and control groups was IP administered with acetic acid 0.6% (10 ml/kg) and individually housed in cage with a smooth flat floor. Antinociception was recorded by counting the number of writhes 5 minutes after injection of acetic acid for period of 10 minutes.
Experiment 3: The experiments were carried out on Female Balb/c mice (21-26g). Three experimental groups were used: control (untreated) (n=4), mice intranasally administered with the Diazepam IN vesicular composition (2.8µl in each nostril = diazepam dose of 5mg/kg animal) (n=4), and mice subcutaneously administered with the Diazepam solution 0.125 % at dose of 5mg/kg animal (n=4). […] Simultaneously, each animal in treated and control groups was IP administered with acetic acid 0.6% (10 ml/kg) and individually housed in cage with a smooth flat floor. Antinociception was recorded by counting the number of writhes 5 minutes after injection of acetic acid for period of 10 minutes.

Plasmodium berghei anka = test: Treatment and prophylaxis of malaria in infected mice, model of cerebral malaria (Example 12); type: in vivo; details: 10mg DHA/kg/day, ICR female mice; for mice survived: treatment regimen (from day 2 after infection, 4 days)
Protocol: Experiments were carried out in vivo in ICR female mice infected with 10^6 erythrocytes parasitized Plasmodium berghei anka, a model of cerebral malaria with striking similarities to the human disease. Infections were monitored using giemsa-stained thin blood smears prepared from tail blood. The animals were treated under isoflurane anesthesia with 10mg DHA/kg/day in a two divided daily doses by two dosage regimens: prophylaxis regimen- starting at 2 days before the infection for a total of 6 days; treatment regimen- starting on day 2 after infection (parasitemia first detected) for a total of 4 days. Mice were either treated by the intranasal administration or by the i.p. injection containing the same DHA doses. Controls included placebo (delivery carrier only) and untreated infected animals. Experiments were conducted in accordance with institutional guidelines for animal care.

nasal mucosa = test: Transport of fluorescent probe across nasal mucosa after in vivo administration, CLS microscopy (Example 15); details: composition of the invention with 0.05% Rhodamine B, 100µL to the right nostril of rats, 1/2 hour
Protocol: A stock solution of Rhodamine B (2mg/mL) was prepared in water. 50mg of phospholipid were dissolved in 200 mg ethanol. […] The composition is stirred for additional 5 min. The composition is described in Table IV.

## CN1C(=O)CN=C(c2ccccc2)c2cc(Cl)ccc21 [diazepam, 7-chloro-1,3-dihydro-1-methyl-5-phenyl-2H-1,4-benzo-diazepin-2-one]
Female Balb/c mice; Experiment 1: intranasal vesicular composition, 5mg/kg, 0.5 h before acetic acid injection, versus untreated control
  writhing episodes (number of writhes): efficiently prevented writhing episodes
Female Balb/c mice; Experiment 2: intranasal vesicular composition, 5mg/kg, simultaneously with acetic acid injection, versus untreated control
  writhing episodes (number of writhes): efficient in treating writhing episodes
Female Balb/c mice; Experiment 3: intranasal vesicular composition 5mg/kg versus subcutaneous diazepam solution 5mg/kg, simultaneously with acetic acid injection
  writhing episodes (number of writhes): significantly more efficient in treating writhing episodes as compared to the same dose of the drug administered subcutaneously

## C[C@H]1[C@@H](O)O[C@@H]2O[C@@]3(C)CC[C@H]4[C@H](C)CC[C@@H]1[C@@]24OO3 [DHA, dihydroartemisinin]
Plasmodium berghei anka; prophylaxis regimen, i.p. injection
  mice in which parasites appeared: 74%
Plasmodium berghei anka; i.p. injection
  mice survived: 19%
Plasmodium berghei anka; intranasal
  mice survived: 75%

## CCN(CC)c1ccc2c(-c3ccccc3C(=O)O)c3ccc(=[N+](CC)CC)cc-3oc2c1.[Cl-] [rhodamine B, Rhodamine B]
Nasal mucosa
  transport across the nasal mucosa: efficiently delivered
